The subject of assay [1] is HCC1806-XRCC1 KD (knock down) cells. The experiment in a line: Cellular viability assay (Cell Titer-Glo). The note with it: 96 h, HCC1806-shXRCC1 cells, 4 days of incubation, read-out: PARGi cell viability. The class given is cell-based. A digest of the protocol:
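XRCC1-knockdown HCC1806 cells seeded 24 h before dosing; 9-point 1:3 dilution from 30 μM top concentration, duplicates, 4-day incubation. Viability by CellTiter-Glo luminescence, normalized to DMSO wells as % of control; curves fit with 4-parameter inhibition model.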

Assay [2] addresses T1, PARG (Homo sapiens, UniProt Q86W56). The experiment in a line: Inhibition of PARG cellular assay (PAR foci in HeLa cells after MMS). The class given is cell-based. Details: endogenous in cells; host or cells: HeLa. The conditions noted are these: compound 1 h then MMS 1 h. A digest of the protocol: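 HeLa cells pretreated with compound for 1 h, then given MMS for a further 1 h, fixed and immunostained for PAR polymer. High-content imaging quantified nuclear PAR foci intensity (PAR Foci IC50) and percent cells with foci signal >1.3 (PAR % positive IC50).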

Assay [3] deals with T1, PARG. The experiment in a line: Inhibition of PARG enzymatic assay (TR-FRET enzymatic IC50 assay). Details: purchased Peak Proteins. The class given is biochemical. The note with it: hPARG 250 pM, biotinylated-PARylated PARP substrate 30 nM. A digest of the protocol:
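Compound preincubated 1 h with 250 pM His-tagged hPARG, then 30 nM biotinylated PARylated hPARP1 substrate added for 10 min; buffer 50 mM Tris-HCl pH 7.4, EDTA/EGTA, 1 mM DTT, 23° C. TR-FRET read after 1 h with anti-His ULight antibody and streptavidin-europium; inhibition scaled between DMSO and no-enzyme controls.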

Molecules are shown by their SMILES. pIC50: −log10 of the molar value. Some results are limits rather than exact numbers.

T1 sequence (Q86W56 whole entry): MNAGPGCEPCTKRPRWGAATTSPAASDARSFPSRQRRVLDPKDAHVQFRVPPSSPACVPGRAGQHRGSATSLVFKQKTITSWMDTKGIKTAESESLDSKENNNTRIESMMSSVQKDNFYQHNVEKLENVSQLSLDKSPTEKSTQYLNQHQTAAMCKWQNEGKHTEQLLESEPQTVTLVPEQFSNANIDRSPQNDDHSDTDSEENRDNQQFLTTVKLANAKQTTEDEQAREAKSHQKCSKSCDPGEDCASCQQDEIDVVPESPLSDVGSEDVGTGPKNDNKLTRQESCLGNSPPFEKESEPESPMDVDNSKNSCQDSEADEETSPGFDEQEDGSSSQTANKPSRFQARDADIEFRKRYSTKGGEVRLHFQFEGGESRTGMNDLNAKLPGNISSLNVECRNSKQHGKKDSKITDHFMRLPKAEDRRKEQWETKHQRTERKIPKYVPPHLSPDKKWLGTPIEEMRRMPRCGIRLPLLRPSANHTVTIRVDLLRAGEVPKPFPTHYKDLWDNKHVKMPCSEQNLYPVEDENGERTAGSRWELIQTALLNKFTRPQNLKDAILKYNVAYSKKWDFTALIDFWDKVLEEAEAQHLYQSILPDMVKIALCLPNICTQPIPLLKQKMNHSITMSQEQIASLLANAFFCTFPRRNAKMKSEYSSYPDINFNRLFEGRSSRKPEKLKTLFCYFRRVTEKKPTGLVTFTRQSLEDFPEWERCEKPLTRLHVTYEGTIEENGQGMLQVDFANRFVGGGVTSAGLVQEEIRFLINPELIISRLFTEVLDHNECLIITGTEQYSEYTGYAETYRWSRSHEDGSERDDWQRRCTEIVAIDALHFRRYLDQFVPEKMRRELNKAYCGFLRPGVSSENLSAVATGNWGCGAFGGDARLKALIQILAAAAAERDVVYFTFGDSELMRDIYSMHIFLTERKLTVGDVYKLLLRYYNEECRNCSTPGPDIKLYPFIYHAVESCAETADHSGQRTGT

For `N#CC1(NS(=O)(=O)c2cc(N3CCN(C(=O)c4ccccn4)CC3)c3cnn(-c4nnc(C(F)F)s4)c3c2)CC1` [Example 87, 1-[({1-[5-(difluoromethyl)(1,3,4-thiadiazol-2-yl)]-4-[4-(2-pyridylcarbonyl)piperazinyl]-1H-indazol-6-yl}sulfonyl)amino]cyclopropanecarbonitrile], the values for the pIC50 (in assay [1]; at PARG [2]; at PARG [3]) were 5.00 to 6.00, at least 7.00 and at least 7.00, respectively.
Consider `CC(C)C(=O)N1CCN(c2cc(S(=O)(=O)NC3(C#N)CC3)cc3c2cnn3-c2nnc(C(F)F)s2)C[C@@H]1C` [Example 88, 1-[({4-[(3S)-3-methyl-4-(2-methylpropanoyl)piperazinyl]-1-[5-(difluoromethyl) (1,3,4-thiadiazol-2-yl)]-1H-indazol-6-yl}sulfonyl)amino]cyclopropanecarbonitrile], for which the pIC50 was 5.00 to 6.00 in assay [1], at least 7.00 against PARG [2] and at least 7.00 against PARG [3].
`CC(C)C(=O)N1[C@H](C)CN(c2cc(S(=O)(=O)NC3(C#N)CC3)cc3c2cnn3-c2nnc(C(F)F)s2)C[C@@H]1C` [Example 89, 1-[({4-[cis-3,5-dimethyl-4-(2-methylpropanoyl)piperazinyl]-1-[5-(difluoromethyl)-(1,3,4-thiadiazol-2-yl)]-1H-indazol-6-yl}sulfonyl)amino]cyclopropanecarbonitrile]: the figures for the pIC50 (in assay [1]; on PARG [2]; at PARG [3]) were 5.00 to 6.00, at least 7.00 and at least 7.00, respectively.
`CN1CCC[C@@H]1C(=O)N1CCN(c2cc(S(=O)(=O)NC3(C#N)CC3)cc3c2cnn3-c2nnc(C(F)F)s2)CC1` [Example 90, 1-{[(4-{4-[((2R)-1-methylpyrrolidin-2-yl)carbonyl]piperazinyl}-1-[5-(difluoromethyl)(1,3,4-thiadiazol-2-yl)]-1H-indazol-6-yl)sulfonyl]amino}cyclopropanecarbonitrile]: the pIC50 in assay [1] is 5.00 to 6.00; at PARG [2], 5.00 to 6.00; against PARG [3], at least 7.00.
`CC(C)C(=O)N1C2CC1CN(c1cc(S(=O)(=O)NC3(C#N)CC3)cc3c1cnn3-c1nnc(C(F)F)s1)C2` [Example 91, 1-[({1-[5-(difluoromethyl)(1,3,4-thiadiazol-2-yl)]-4-[6-(2-methylpropanoyl)-3,6-diazabicyclo[3.1.1]hept-3-yl]-1H-indazol-6-yl}sulfonyl)amino]cyclopropanecarbonitrile]: the pIC50 in assay [1] was 4.52 to 4.70; against PARG [2] it was 5.00 to 6.00; against PARG [3], 5.00 to 6.00.
Turning to `N#CC1(NS(=O)(=O)c2cc(N3CCN(c4ccccn4)CC3)c3cnn(-c4nnc(C(F)F)s4)c3c2)CC1` [Example 93, 1-[({1-[5-(difluoromethyl)(1,3,4-thiadiazol-2-yl)]-4-(4-(2-pyridyl)piperazinyl)-1H-indazol-6-yl}sulfonyl)amino]cyclopropanecarbonitrile], the pIC50 in assay [1] was 5.00 to 6.00; against PARG [2] it was 6.00 to 6.52; at PARG [3], 5.00 to 6.00.
For `N#CC1(NS(=O)(=O)c2cc(N3CCN(c4cccnc4)CC3)c3cnn(-c4nnc(C(F)F)s4)c3c2)CC1` [Example 94, 1-[({1-[5-(difluoromethyl)(1,3,4-thiadiazol-2-yl)]-4-(4-(3-pyridyl)piperazinyl)-1H-indazol-6-yl}sulfonyl)amino]cyclopropanecarbonitrile], the figures for the pIC50 (in assay [1]; against PARG [2]; against PARG [3]) were 5.00 to 6.00, 6.00 to 6.52 and 6.00 to 6.52, respectively.
Consider `N#CC1(NS(=O)(=O)c2cc(N3CCN(c4cccnn4)CC3)c3cnn(-c4nnc(C(F)F)s4)c3c2)CC1` [Example 95, 1-[({1-[5-(difluoromethyl)(1,3,4-thiadiazol-2-yl)]-4-(4-pyridazin-3-ylpiperazinyl)-1H-indazol-6-yl}sulfonyl)amino]cyclopropanecarbonitrile], for which the pIC50 is 5.00 to 6.00 in assay [1], 6.52 to 7.00 at PARG [2] and at least 7.00 against PARG [3].
Consider `N#CC1(NS(=O)(=O)c2cc(N3CCN(C(=O)c4ccccc4)CC3)c3cnn(-c4nnc(C(F)F)s4)c3c2)CC1` [Example 96, 1-[({1-[5-(difluoromethyl)(1,3,4-thiadiazol-2-yl)]-4-[4-(phenylcarbonyl)piperazinyl]-1H-indazol-6-yl}sulfonyl)amino]cyclopropanecarbonitrile], for which the pIC50 in assay [1] was 5.00 to 6.00; on PARG [2] it was at least 7.00; at PARG [3], at least 7.00.
Take `Cc1nnc(-n2ncc3c(N4CCN(C(=O)C(C)C)CC4)cc(S(=O)(=O)NC4(C#N)CC4)cc32)s1` [Example 97, 1-[({1-(5-methyl(1,3,4-thiadiazol-2-yl))-4-[4-(2-methylpropanoyl)piperazinyl]-1H-indazol-6-yl}sulfonyl)amino]cyclopropanecarbonitrile]: the pIC50 in assay [1] is 5.00 to 6.00; on PARG [2] it was 6.52 to 7.00; against PARG [3], at least 7.00.
Taken in the same sequence, the figures for `CC(C)NS(=O)(=O)c1cc(N2CCN(C(=O)C(C)C)CC2)c2cnn(-c3nnc(C(F)F)s3)c2c1` [Example 98, 1-[4-(1-[5-(difluoromethyl)(1,3,4-thiadiazol-2-yl)]-6-{[(methylethyl)amino]sulfonyl}(1H-indazol-4-yl))piperazinyl]-2-methylpropan-1-one] were 5.00 to 6.00, 5.00 to 6.00 and 6.52 to 7.00.
The like results for `CC(C)C(=O)N1CCN(c2cc(S(=O)(=O)NC(C)(C)C)cc3c2cnn3-c2nnc(C(F)F)s2)CC1` [Example 99, 1-[4-(1-[5-(difluoromethyl)(1,3,4-thiadiazol-2-yl)]-6-{[(tert-butyl)amino]sulfonyl}(1H-indazol-4-yl))piperazinyl]-2-methylpropan-1-one] were, in that order, 5.00 to 6.00, 5.00 to 6.00 and 6.52 to 7.00.
Taken in the same sequence, the figures for `N#CC1(NS(=O)(=O)c2cc(N3CCOCC3)c3cnn(-c4nnc(C(F)F)s4)c3c2)CC1` [Example 100, 1-[({1-[5-(difluoromethyl)(1,3,4-thiadiazol-2-yl)]-4-morpholin-4-yl-1H-indazol-6-yl}sulfonyl)amino]cyclopropanecarbonitrile] were 5.00 to 6.00, 6.00 to 6.52 and 6.52 to 7.00.
On to `C[C@H]1CN(c2cc(S(=O)(=O)NC3(C#N)CC3)cc3c2cnn3-c2nnc(C(F)F)s2)CCO1` [Example 103, (S)—N-(1-cyanocyclopropyl)-1-(5-(difluoromethyl)-1,3,4-thiadiazol-2-yl)-4-(2-methylmorpholino)-1H-indazole-6-sulfonamide], for which the pIC50 is 5.00 to 6.00 in assay [1], 6.52 to 7.00 against PARG [2] and 6.52 to 7.00 at PARG [3].
As to `N#CC1(NS(=O)(=O)c2cc(N3CCC(F)CC3)c3cnn(-c4nnc(C(F)F)s4)c3c2)CC1` [Example 104, 1-[({1-[5-(difluoromethyl)(1,3,4-thiadiazol-2-yl)]-4-(4-fluoropiperidyl)-1H-indazol-6-yl}sulfonyl)amino]cyclopropanecarbonitrile], the results for the pIC50 (in assay [1]; against PARG [2]; at PARG [3]) were 5.00 to 6.00, 6.00 to 6.52 and 6.00 to 6.52, respectively.
Regarding `C[C@@H]1CN(c2cc(S(=O)(=O)NC3(C#N)CC3)cc3c2cnn3-c2nnc(C(F)F)s2)CCN1C(=O)C1CCN(CC(F)F)CC1` [Example 106, 1-({[4-((3R)-4-{[1-(2,2-difluoroethyl)(4-piperidyl)]carbonyl}-3-methylpiperazinyl)-1-[5-(difluoromethyl)(1,3,4-thiadiazol-2-yl)]-1H-indazol-6-yl]sulfonyl}amino) cyclopropanecarbonitrile], the values for the pIC50 (in assay [1]; against PARG [2]; on PARG [3]) were 5.00 to 6.00, at least 7.00 and at least 7.00, respectively.
As to `N#CC1(NS(=O)(=O)c2cc(N3CCN(C(=O)C4CCN(CC(F)F)CC4)CC3)c3cnn(-c4nnc(C(F)F)s4)c3c2)CC1` [Example 107, 1-({[4-(4-{[1-(2,2-difluoroethyl)(4-piperidyl)]carbonyl}piperazinyl)-1-[5-(difluoro-methyl)(1,3,4-thiadiazol-2-yl)]-1H-indazol-6-yl]sulfonyl}amino)cyclopropane carbonitrile], the pIC50 was 5.00 to 6.00 in assay [1], 6.52 to 7.00 at PARG [2] and at least 7.00 against PARG [3].
With `C[C@@H]1CN(c2cc(S(=O)(=O)NC3(C#N)CC3)cc3c2cnn3-c2nnc(C(F)F)s2)CCN1C(=O)C1(C)CC1` [Example 108, 1-{[(4-{(3R)-3-methyl-4-[(methylcyclopropyl)carbonyl]piperazinyl}-1-[5-(difluoro-methyl)(1,3,4-thiadiazol-2-yl)]-1H-indazol-6-yl)sulfonyl]amino}cyclopropane carbonitrile], the figures for the pIC50 (in assay [1]; against PARG [2]; against PARG [3]) were over 6.00, at least 7.00 and at least 7.00, respectively.
In the case of `C[C@@H]1CN(c2cc(S(=O)(=O)NC3(C#N)CC3)cc3c2cnn3-c2nnc(C(F)F)s2)CCN1C(=O)C1(C)CCC1` [Example 109, 1-{[(4-{(3R)-3-methyl-4-[(methylcyclobutyl)carbonyl]piperazinyl}-1-[5-(difluoro-methyl)(1,3,4-thiadiazol-2-yl)]-1H-indazol-6-yl)sulfonyl]amino}cyclopropane carbonitrile], the pIC50 was over 6.00 in assay [1], at least 7.00 against PARG [2] and at least 7.00 against PARG [3].

The values above are taken from patent US20220389003A1, “4-SUBSTITUTED INDOLE AND INDAZOLE SULFONAMIDO DERIVATIVES AS PARG INHIBITORS” (IDEAYA BIOSCIENCES, INC., priority 2019, published 2022).
